Among the test systems are Hs-578T; MOLT-4; HT-29; HOP-92; SF-539; OVCAR-8; OVCAR-3; K562; COLO 205; SK-MEL-2; T47D; TK-10; HCT-116; SW-620; HCT-15; KM12; NCI-H522; PC-3; UACC-257; HOP-62.
What all share (test): NCI tumour cell line growth inhibition, 48 h

The values that follow come from ChEMBL document CHEMBL1201862, “PubChem BioAssay data set” (2004).

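Exposure lasted 48 hours, with cells grown in 96-well plates and compounds tested at five concentrations. Abbreviation: GI50, concentration required for 50% inhibition of growth.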 Active and inactive are the calls of the source. Cut-off read from the data, not from the text of the source: active = GI50 up to about 1.1 µM and inactive = higher.

With `COC1=NC(NC2OCC(O)C(O)C2O)=C(NC(C)=O)CN1C` (centres undefined), the GI50 in the assay with Hs-578T, in the assay on MOLT-4, with HT-29, in the assay on HOP-92, in the assay on SF-539 and in the assay on OVCAR-8 was > 100 µM (inactive) throughout. The GI50 with OVCAR-3, with K562, in the assay with COLO 205, in the assay on SK-MEL-2, with T47D and with TK-10 was > 100 µM (inactive) throughout. The GI50 with HCT-116 was > 100 µM (inactive); with SW-620 it was > 100 µM (inactive); in the assay on HCT-15, greater than 100 µM; with KM12, > 100 µM (inactive); in the assay on NCI-H522, > 100 µM (inactive).

In the case of `O=C(O)CCC(/N=C(\C(=N\C(CCC(=O)O)C(=O)O)c1ccccc1)c1ccccc1)C(=O)O` (centres undefined), the GI50 in the assay on Hs-578T, in the assay with MOLT-4, with OVCAR-8, in the assay on PC-3, with OVCAR-3 and in the assay on UACC-257 was > 100 µM (inactive) each time. Further, the GI50 in the assay on K562, in the assay on COLO 205, with SK-MEL-2, in the assay with T47D, with TK-10 and in the assay with HCT-116 was > 100 µM (inactive) throughout. Moreover, the GI50 with SW-620 was > 100 µM (inactive); in the assay on HCT-15 it was greater than 100 µM; in the assay on KM12, > 100 µM (inactive); in the assay with HOP-62, > 100 µM (inactive).

Turning to `C=C(Br)C(Br)(CCl)CCC(Cl)C(C)C.C=C(Cl)C(Br)(CCl)CCC(Cl)C(C)C` (centres undefined), the GI50 is 2.49 µM (inactive) with Hs-578T; 0.439 µM (active) with MOLT-4; 1.41 µM (inactive) with HT-29; 1.87 µM (inactive) in the assay with HOP-92; 1.94 µM (inactive) in the assay with SF-539; 2.91 µM (inactive) with PC-3. The GI50 was 2.29 µM (inactive) with OVCAR-3; 1.67 µM (inactive) with UACC-257; 0.684 µM (active) with K562; 2.13 µM (inactive) in the assay with COLO 205; 1.47 µM (inactive) in the assay with SK-MEL-2; 2.14 µM (inactive) in the assay on TK-10. Also, the GI50 with HCT-116 is 1.75 µM (inactive); in the assay with SW-620 it was 1.53 µM (inactive); in the assay on KM12, 1.83 µM (inactive); in the assay with NCI-H522, 1.35 µM (inactive); in the assay with HOP-62, 2.21 µM (inactive).

On to `CCN(CC)C(=S)SS(=O)(=O)c1ccc(F)cc1`, for which the GI50 in the assay with Hs-578T was 63 µM (inactive); in the assay on HT-29, 22 µM (inactive); in the assay with HOP-92, 31.2 µM (inactive); with SF-539 it was 23 µM (inactive); with OVCAR-8 it was 32.1 µM (inactive); in the assay on OVCAR-3, > 100 µM (inactive). Besides, the GI50 in the assay with UACC-257 is 28.4 µM (inactive); with K562, 23.2 µM (inactive); in the assay with COLO 205, > 100 µM (inactive); in the assay on SK-MEL-2, 56.4 µM (inactive); in the assay on T47D, 85.1 µM (inactive); in the assay on TK-10 it was > 100 µM (inactive). Moreover, the GI50 in the assay with HCT-116 was 25.3 µM (inactive); in the assay on SW-620, 17.9 µM (inactive); in the assay with HCT-15 it was 66.7 µM; in the assay on KM12, 17.8 µM (inactive); in the assay on NCI-H522 it was 0.0552 µM (active); in the assay with HOP-62, 40.6 µM (inactive).

As for `CCOC(=O)/C(=C\NCC(O)c1ccccc1)c1nc2ccccc2[nH]1` (centres undefined), the GI50 in the assay with Hs-578T was 20.5 µM (inactive); in the assay on MOLT-4, 11.8 µM (inactive); with HT-29, 21.5 µM (inactive); in the assay with HOP-92 it was 22.1 µM (inactive); in the assay with SF-539 it was 21.1 µM (inactive); in the assay on OVCAR-8 it was 23.2 µM (inactive). For the same molecule, the GI50 with OVCAR-3 is 34.7 µM (inactive); in the assay with UACC-257, 19.6 µM (inactive); in the assay on K562 it was 19.8 µM (inactive); in the assay on COLO 205, 16.7 µM (inactive); with TK-10, 26.1 µM (inactive); in the assay on HCT-116, 28.6 µM (inactive). Moreover, the GI50 with SW-620 is 31.4 µM (inactive); in the assay with HCT-15, 21.6 µM; in the assay with KM12, 21.6 µM (inactive); with NCI-H522 it was 17.5 µM (inactive); with HOP-62 it was 43.5 µM (inactive).

For the molecule `CC1=CC(=O)c2ccc3c4ccccc4n(C)c3c2C1=O`, the GI50 is 62.8 µM (inactive) in the assay on Hs-578T; 19.4 µM (inactive) with MOLT-4; > 31.6 µM (inactive) in the assay with HT-29; > 46.5 µM (inactive) with HOP-92; > 100 µM (inactive) in the assay on SF-539; 58.9 µM (inactive) with OVCAR-8. Moreover, the GI50 is 54.8 µM (inactive) in the assay with OVCAR-3; 46.3 µM (inactive) in the assay on UACC-257; 16.1 µM (inactive) with K562; > 85.9 µM (inactive) with COLO 205; 16.2 µM (inactive) in the assay on SK-MEL-2; 33.8 µM (inactive) with T47D. Also, the GI50 in the assay on TK-10 was > 100 µM (inactive); with HCT-116, > 88.5 µM (inactive); with SW-620, 92.3 µM (inactive); in the assay with HCT-15 it was 25.5 µM; in the assay with KM12, 34.4 µM (inactive); in the assay with NCI-H522 it was 28.4 µM (inactive). In addition, the GI50 in the assay on HOP-62 was 24.9 µM (inactive).

On to `O=C(NNC(=S)Nc1ccccc1)c1csc(NC(=S)NC2CCCCC2)n1`, for which the GI50 with MOLT-4 was 25.6 µM (inactive); with HT-29, 15.6 µM (inactive); with HOP-92, 94 µM (inactive); in the assay on SF-539, 77.4 µM (inactive); with OVCAR-8 it was 56.5 µM (inactive); with PC-3, 62.4 µM (inactive). Besides, the GI50 in the assay on OVCAR-3 was 87.5 µM (inactive); in the assay with UACC-257, 29 µM (inactive); with K562, > 10 µM (inactive); with COLO 205, 40.1 µM (inactive); with SK-MEL-2 it was > 100 µM (inactive); in the assay on T47D, 36.9 µM (inactive). Moreover, the GI50 in the assay with TK-10 was > 100 µM (inactive); with HCT-116 it was 67.1 µM (inactive); with SW-620, 52.7 µM (inactive); in the assay with HCT-15, 33.3 µM; with KM12, > 100 µM (inactive); with NCI-H522, 79.3 µM (inactive). In the assay on HOP-62, the GI50 was > 100 µM (inactive).

Regarding `CCCC/N=C(/c1ccccc1)N1CCOCC1`, the GI50 in the assay on Hs-578T was 87.1 µM (inactive); in the assay with MOLT-4, > 100 µM (inactive); in the assay with HT-29, > 100 µM (inactive); with SF-539, > 100 µM (inactive); with OVCAR-8 it was > 100 µM (inactive); with PC-3, > 100 µM (inactive). The GI50 in the assay with OVCAR-3, in the assay on UACC-257, in the assay with K562, in the assay with COLO 205, in the assay with SK-MEL-2 and in the assay on TK-10 was > 100 µM (inactive) in each case. Further, the GI50 is > 100 µM (inactive) in the assay with HCT-116; > 100 µM (inactive) in the assay with SW-620; greater than 100 µM with HCT-15; > 100 µM (inactive) with KM12; > 100 µM (inactive) in the assay with HOP-62.

Turning to `Cc1ccc(S(=O)(=O)N2CCN(S(=O)(=O)c3ccc(C)cc3)Cc3ccccc3C2)cc1`, the GI50 is 24.5 µM (inactive) in the assay with Hs-578T; > 100 µM (inactive) in the assay with MOLT-4; > 100 µM (inactive) in the assay on HT-29; > 100 µM (inactive) in the assay with SF-539; 82.6 µM (inactive) in the assay on OVCAR-8; 56.8 µM (inactive) in the assay on OVCAR-3. The GI50 with UACC-257 is 49.8 µM (inactive); in the assay on K562, > 100 µM (inactive); in the assay on COLO 205, > 100 µM (inactive); in the assay on SK-MEL-2, > 100 µM (inactive); in the assay on T47D, 28.2 µM (inactive); in the assay with TK-10, > 100 µM (inactive). Besides, the GI50 is > 100 µM (inactive) in the assay on HCT-116; > 100 µM (inactive) in the assay on SW-620; greater than 100 µM in the assay with HCT-15; > 100 µM (inactive) in the assay on KM12; 21.6 µM (inactive) in the assay on NCI-H522; 20.5 µM (inactive) with HOP-62.

As to `Cc1nc2sccn2c1C(=O)NN`, the GI50 in the assay on MOLT-4, in the assay on HT-29, in the assay on HOP-92, in the assay on SF-539, in the assay on OVCAR-8 and with OVCAR-3 was > 100 µM (inactive) in each case. In addition, the GI50 in the assay with UACC-257, in the assay on K562, in the assay on COLO 205, in the assay with SK-MEL-2, in the assay on TK-10 and with HCT-116 was > 100 µM (inactive) each time. Also, the GI50 is > 100 µM (inactive) with SW-620; greater than 100 µM with HCT-15; > 100 µM (inactive) in the assay with KM12; > 100 µM (inactive) in the assay with NCI-H522; > 100 µM (inactive) with HOP-62.

On to `Cc1cc(-c2nc3ccc(F)cc3s2)ccc1N`, for which the GI50 is 37.2 µM (inactive) in the assay on Hs-578T; > 100 µM (inactive) in the assay with MOLT-4; > 100 µM (inactive) in the assay with HT-29; > 100 µM (inactive) in the assay on HOP-92; 43.5 µM (inactive) in the assay with SF-539; > 100 µM (inactive) in the assay with OVCAR-8. Moreover, the GI50 in the assay with PC-3 is 63.5 µM (inactive); with OVCAR-3, > 100 µM (inactive); in the assay with UACC-257, > 100 µM (inactive); in the assay with K562, > 100 µM (inactive); in the assay on COLO 205 it was > 100 µM (inactive); with SK-MEL-2, > 100 µM (inactive). Also, the GI50 is < 0.01 µM (active) in the assay on TK-10; > 100 µM (inactive) in the assay on HCT-116; > 100 µM (inactive) in the assay on SW-620; greater than 100 µM with HCT-15; > 100 µM (inactive) in the assay on KM12; 21.5 µM (inactive) in the assay with NCI-H522. The GI50 in the assay on HOP-62 is > 100 µM (inactive).
